From paper PMC3855387, “AMPK Activation through Mitochondrial Regulation Results in Increased Substrate Oxidation and Improved Metabolic Parameters in Models of Diabetes” (PLoS ONE, 2013)
pIC50: −log10 of the molar value.

Assays:
[1] = molecular target: T1, respiratory complex I (mitochondrial complex I) (Mus musculus, UniProt P03888+Q91WD5+Q9DC70); assay: NADH oxidation (A340) in mouse liver mitochondrial lysate; format: biochemical
T1 construct: gene Ndufs2; native complex in mouse liver mitochondrial lysate

[2] = molecular target: T1, respiratory complex I (mitochondrial complex I); assay: NADH oxidation (A340) in mouse liver mitochondrial lysate; succinate rescue of respiration in isolated mitochondria; format: biochemical

Work on `CN(C)C(=N)N=C(N)N` [metformin] yielded a pIC50 [1] of 1.57.
Compound `COc1ccc(C(=O)C2CCN(C(=O)c3ccc(C(=O)NC4CCN(Cc5ccc(C#N)cc5)CC4)cn3)CC2)cc1` [R419, N-(1-(4-cyanobenzyl)piperidin-4-yl)-6-(4-(4-methoxybenzoyl)piperidine-1-carbonyl)nicotinamide] has a pIC50 [2] of 7.09.
